What follows are molecules tested against T1, recombinant human IDO1 enzyme (Homo sapiens, UniProt P14902) (assay: Test of hIDO1 for enzymatic activity in vitro (NFK Green fluorescence)).
T1 construct: purchased NTRC (Netherlands Translational Research Center) NTRC-hIDO-10K
Format: biochemical
Method: 1. Test of hIDO1 for Enzymatic Activity In Vitro
1.1 Purpose of Experiment:
Changes in production of NFK, an IDO1 enzymatic metabolite were detected with NFK Green™ fluorescent molecules. With an IC50 value of a compound as an index, an inhibitory effect of the compound on recombinant human IDO1 enzyme was evaluated.
The compound was diluted with dimethyl sulfoxide (DMSO) to 1 mM, with 10 gradients, each 3-fold dilution, in duplicate. 48 μL of 50 mM phosphate buffer, having pH of 6.5, was transferred by the Bravo automatic liquid processing platform to the compound plate. Then 2 μL of an already diluted compound/DMSO solution was added. After even mixing, 10 μL of the resultant mixture was transferred to the enzymatic reaction plate.
IDO1 enzyme was diluted to 20 nM in a reaction buffer (50 mM phosphate buffer with pH of 6.5, 0.1% of Tween-20, 2% of glycerol, 20 mM ascorbic acid, 20 μg/ml catalase, and 20 μM methylene blue), 20 μL of the diluted IDO1 enzyme was transferred to the enzymatic reaction plate, and incubated at 23° C. for 30 minutes. 10 μL of 400 μM L-type tryptophan substrate was added to start reaction. The incubation lasted at 23° C. for 90 minutes. 10 μL of NFK Green™ fluorescent dye was added. The resultant mixture was sealed with the plate sealing film. After incubation at 37° C. for 4 hours, an Envision multi-functional plate reader was used for reading (Ex 400 nm/Em 510 nm).
A reference well to which the IDO1 enzyme was added but no compound was added was set to have an inhibition rate of 0%, and a reference well to which no IDO1 enzyme was added was set to have an inhibition rate of 100%. Data was analyzed with XLFit 5 to calculate an IC50 value of the compound.

T1 sequence (P14902 whole entry): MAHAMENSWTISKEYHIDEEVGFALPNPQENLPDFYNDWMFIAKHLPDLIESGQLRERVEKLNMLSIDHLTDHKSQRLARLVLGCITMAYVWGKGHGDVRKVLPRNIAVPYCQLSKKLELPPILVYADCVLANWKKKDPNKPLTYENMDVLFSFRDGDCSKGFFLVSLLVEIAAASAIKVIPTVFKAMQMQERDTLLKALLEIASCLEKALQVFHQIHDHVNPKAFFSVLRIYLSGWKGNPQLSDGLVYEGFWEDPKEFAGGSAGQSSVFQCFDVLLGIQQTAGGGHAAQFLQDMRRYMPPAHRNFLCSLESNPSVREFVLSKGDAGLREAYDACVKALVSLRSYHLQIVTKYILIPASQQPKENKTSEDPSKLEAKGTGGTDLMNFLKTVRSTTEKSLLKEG

SMILES	IC50 [nM]
C=CCSc1nonc1/C(=N/O)Nc1ccc(F)c(Br)c1 [Compound 0138]	364
O=C(CSc1nonc1/C(=N/O)Nc1ccc(F)c(Br)c1)NCC(F)(F)F [Compound 0301]	125
NS(=O)(=O)NC(COc1nonc1/C(=N/O)Nc1ccc(F)c(Br)c1)c1ccccc1 (stereo not drawn) [Compound 0089]	981
O/N=C(\Nc1ccc(F)c(Br)c1)c1nonc1O [Compound 0026]	> 10000
NS(=O)(=O)NCCOc1nonc1/C(=N/O)Nc1ccc(Cl)c(Cl)c1 [Compound 0160]	3830
NS(=O)(=O)NC1(COc2nonc2/C(=N/O)Nc2ccc(F)c(Br)c2)CC1 [Compound 0070]	1380
COCCCCOc1nonc1/C(=N/O)Nc1ccc(F)c(Br)c1 [Compound 0128]	601
O/N=C(\Nc1ccc(F)c(Br)c1)c1nonc1OC1CCOC1 (stereo not drawn) [Compound 0124]	1030
COc1nonc1/C(=N/C#N)Nc1ccc(F)c(Br)c1 [Compound 0069]	> 10000
CC(CNS(N)(=O)=O)Oc1nonc1/C(=N/O)Nc1ccc(F)c(Br)c1 (stereo not drawn) [Compound 0119]	2070
CN(C)CCN(C)CCOc1nonc1/C(=N/O)Nc1ccc(F)c(Br)c1 [Compound 0182]	673
NS(=O)(=O)NCC[S+]([O-])c1nonc1/C(=N/O)Nc1ccc(F)c(Br)c1 (stereo not drawn) [Compound 0239]	846
O/N=C(\Nc1ccc(F)c(Br)c1)c1nonc1OCc1c[nH]cn1 [Compound 0143]	> 10000
O/N=C(\Nc1ccc(F)c(Br)c1)c1nonc1OCc1cncs1 [Compound 0144]	> 10000
O=S(=O)(NCCSc1nonc1/C(=N/O)Nc1ccc(F)c(Br)c1)C1CC1 [Compound 0230]	203
COc1c(F)cc(N/C(=N\O)c2nonc2OCCNS(N)(=O)=O)cc1F [Compound 0158]	4360
CCS(=O)(=O)CCOc1nonc1/C(=N/O)Nc1ccc(F)c(Br)c1 [Compound 0180]	> 10000
CS(=O)(=O)N1CC(COc2nonc2/C(=N/O)Nc2ccc(F)c(Br)c2)C1 [Compound 0141]	452
CCN(CC)C(=O)COc1nonc1/C(=N/O)Nc1ccc(F)c(Br)c1 [Compound 0183]	1120
O/N=C(\Nc1ccc(F)c(Br)c1)c1nonc1SCc1ccccc1Cl [Compound 0134]	7150
CC(C)(C)OC(=O)NOc1nonc1/C(=N/O)Nc1ccc(F)c(Br)c1 [Compound 0078]	> 10000
O=C1NCCN1CCOc1nonc1/C(=N/O)Nc1ccc(F)c(Br)c1 [Compound 0179]	594
NS(=O)(=O)NCCOc1nonc1/C(=N/O)Nc1ccc(F)c(C(F)(F)F)c1 [Compound 0121]	188
O/N=C(\Nc1ccc(F)c(Br)c1)c1nonc1OCC1COC1 [Compound 0129]	426

SMILES	IC50 [nM]
O=C(NCCOc1nonc1/C(=N/O)Nc1ccc(F)c(Br)c1)c1ccccc1 [Compound 0108]	387
NS(=O)(=O)NCCOc1nonc1/C(=N/O)Nc1ccc(F)c(Cl)c1 [Compound 0190]	945
N#Cc1cc(N/C(=N\O)c2nonc2OCCNS(N)(=O)=O)ccc1F [Compound 0120]	616
NS(=O)(=O)NCCOc1nonc1/C(=N/O)Nc1ccc(Cl)c(C(F)(F)F)c1 [Compound 0184]	4830
NOc1nonc1/C(=N/O)Nc1ccc(F)c(Br)c1 [Compound 0077]	> 10000
NS(=O)(=O)NCCOc1nonc1/C(=N/O)Nc1cc(F)c(Cl)c(F)c1 [Compound 0156]	5700
O/N=C(\Nc1ccc(F)c(Br)c1)c1nonc1OCC(F)(F)F [Compound 0135]	3290
CN(C)S(=O)(=O)NCCSc1nonc1/C(=N/O)Nc1ccc(F)c(Br)c1 [Compound 0232]	373
CCNC(=O)CSc1nonc1C(=NO)Nc1ccc(F)c(Br)c1 [Compound 0300]	72.6
NS(=O)(=O)NCCOc1nonc1/C(=N/O)Nc1ccc(F)c(C2CC2)c1 [Compound 0122]	565
CC(COc1nonc1/C(=N/O)Nc1ccc(F)c(Br)c1)NS(N)(=O)=O (stereo not drawn) [Compound 0071]	799
O/N=C(\Nc1ccc(F)c(Br)c1)c1nonc1Oc1ccc(Cl)cc1 [Compound 0150]	> 10000
CN(C)CCOc1nonc1/C(=N/O)Nc1ccc(F)c(Br)c1 [Compound 0140]	197
O/N=C(\Nc1ccc(F)c(Br)c1)c1nonc1OCCc1ccccn1 [Compound 0131]	702
O=S(=O)(NCCOc1nonc1/C(=N/O)Nc1ccc(F)c(Br)c1)c1ccccc1 [Compound 0107]	1300
CS(=O)(=O)N1CCC(COc2nonc2/C(=N/O)Nc2ccc(F)c(Br)c2)CC1 [Compound 0142]	1310
CN(CCOc1nonc1/C(=N/O)Nc1ccc(F)c(Br)c1)Cc1ccccc1 [Compound 0133]	1030
NS(=O)(=O)NCCOc1nonc1/C(=N/O)Nc1ccc(F)c(F)c1 [Compound 0162]	928
O/N=C(\Nc1ccc(F)c(Br)c1)c1nonc1SC1CCCCC1 [Compound 0137]	5710
O=C(CSc1nonc1/C(=N/O)Nc1ccc(F)c(Br)c1)NCC(F)F [Compound 0302]	88
NS(=O)(=O)NCCOc1nonc1/C(=N/O)Nc1cc(F)c(F)c(Br)c1 [Compound 0189]	590
CP(C)(=O)NCCOc1nonc1/C(=N/O)Nc1ccc(F)c(Br)c1 [Compound 0149]	290
COc1nonc1/C(=N/O)Nc1ccc(F)c(C#N)c1 [Compound 0103]	537
NS(=O)(=O)N[C@H]1C[C@H](Oc2nonc2/C(=N/O)Nc2ccc(F)c(Br)c2)C1 [Compound 0222]	466

Source: US20190169140A1, “IDO1 INHIBITOR AND PREPARATION METHOD AND APPLICATION THEREOF” (SHANDONG LUYE PHARMACEUTICAL CO., LTD., priority 2016, published 2019)
